We go through one compound from ChEMBL document CHEMBL1146379, “Solid phase synthesis and SAR of small molecule agonists for the GPR40 receptor” (Bioorg Med Chem Lett, 2007).

Each structure is given as a SMILES string. Converted amounts (≈) assume the structure as drawn. A value given as a limit tells only on which side of the number the result lay.

Data set [1] can be described thus: Clearance in rat. It counts as ADME, organism-based. As to conditions: in vivo.
The test system of the next data set is Liver microsomes. In words: Intrinsic clearance in human liver microsomes. In kind it is ADME, Microsome. On the technique in general: Microsomes from liver hold many membrane-bound enzymes, among them those of drug oxidation.
The nature of data set [2]: Permeability in MDCK cells expressing low Pgp. It counts as ADME, cell-based, Canis lupus familiaris. Conditions: dog, MDCK type I; read-out: permeability.
Data set [3] in a line: Volume of distribution at steady state in rat. In kind it is ADME, organism-based. As to conditions: in vivo, read-out: Vdss.
The target in data set [4] is T1, Free fatty acid receptor 2 (Homo sapiens, UniProt O15552).
T1 sequence (O15552 whole entry): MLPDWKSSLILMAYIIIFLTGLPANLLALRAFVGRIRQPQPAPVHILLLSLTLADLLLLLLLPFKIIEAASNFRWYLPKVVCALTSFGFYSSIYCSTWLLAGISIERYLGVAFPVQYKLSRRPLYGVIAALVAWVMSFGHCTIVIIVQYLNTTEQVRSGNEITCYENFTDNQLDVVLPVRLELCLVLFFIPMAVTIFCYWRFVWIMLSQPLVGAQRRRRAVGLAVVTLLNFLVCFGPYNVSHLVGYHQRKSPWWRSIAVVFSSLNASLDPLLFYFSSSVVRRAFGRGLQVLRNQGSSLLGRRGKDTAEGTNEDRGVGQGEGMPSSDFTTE
In words: Activity at GPR43 receptor.

For data set [5], the target named is Hydroxycarboxylic acid receptor 2 (Homo sapiens, UniProt Q8TDS4). Put plainly: Activity at HM74A receptor.
Hydroxycarboxylic acid receptor 2, sequence (Q8TDS4 whole entry): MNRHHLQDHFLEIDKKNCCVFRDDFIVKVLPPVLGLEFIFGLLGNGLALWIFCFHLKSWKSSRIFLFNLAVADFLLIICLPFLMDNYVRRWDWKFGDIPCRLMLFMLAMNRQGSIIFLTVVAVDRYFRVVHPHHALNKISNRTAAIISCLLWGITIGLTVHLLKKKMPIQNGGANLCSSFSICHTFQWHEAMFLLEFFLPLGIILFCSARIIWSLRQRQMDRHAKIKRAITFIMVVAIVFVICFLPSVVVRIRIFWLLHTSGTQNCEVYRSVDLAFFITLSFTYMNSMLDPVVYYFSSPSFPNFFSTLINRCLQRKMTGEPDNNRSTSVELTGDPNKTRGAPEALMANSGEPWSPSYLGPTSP
Data set [6] has as its target Sphingosine 1-phosphate receptor 1 (Homo sapiens, UniProt P21453). In words: Activity at S1P1 receptor.
Data set [7] deals with T2, Prostaglandin E2 receptor EP3 subtype (Homo sapiens, UniProt P43115).
T2 sequence (P43115 whole entry): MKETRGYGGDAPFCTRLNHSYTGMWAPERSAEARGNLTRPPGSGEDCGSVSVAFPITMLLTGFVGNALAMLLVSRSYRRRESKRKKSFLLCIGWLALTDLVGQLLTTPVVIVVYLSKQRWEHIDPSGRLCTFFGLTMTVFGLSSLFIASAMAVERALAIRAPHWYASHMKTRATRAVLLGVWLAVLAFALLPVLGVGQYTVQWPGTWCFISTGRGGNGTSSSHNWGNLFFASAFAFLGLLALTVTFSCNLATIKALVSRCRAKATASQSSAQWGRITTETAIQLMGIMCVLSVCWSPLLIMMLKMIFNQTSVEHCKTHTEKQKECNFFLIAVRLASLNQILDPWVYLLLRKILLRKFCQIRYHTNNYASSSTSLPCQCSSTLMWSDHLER
In words: Activity at EP3 receptor.

In data set [8] the target is T3, Prostaglandin E2 receptor EP1 subtype (Homo sapiens, UniProt P34995).
T3 sequence (P34995 whole entry): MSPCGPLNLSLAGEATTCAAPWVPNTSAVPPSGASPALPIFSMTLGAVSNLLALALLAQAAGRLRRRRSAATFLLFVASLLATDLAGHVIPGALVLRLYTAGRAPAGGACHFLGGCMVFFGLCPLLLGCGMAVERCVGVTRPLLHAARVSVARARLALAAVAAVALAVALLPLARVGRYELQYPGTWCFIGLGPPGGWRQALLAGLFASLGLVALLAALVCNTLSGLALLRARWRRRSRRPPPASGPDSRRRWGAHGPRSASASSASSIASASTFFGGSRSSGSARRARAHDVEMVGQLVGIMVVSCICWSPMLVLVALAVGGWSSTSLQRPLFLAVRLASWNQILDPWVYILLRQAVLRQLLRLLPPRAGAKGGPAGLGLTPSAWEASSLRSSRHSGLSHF
Put plainly: Activity at EP1 receptor.

A short description of data set [9]: Solubility at pH 7.4. It counts as physicochemical. As to conditions: buffer.
A short description of data set [10]: Half life in po dosed rat. It counts as ADME, organism-based. Conditions: in vivo.
Data set [11] addresses T4, Peroxisome proliferator-activated receptor alpha (Homo sapiens, UniProt Q07869).
T4 sequence (Q07869 whole entry): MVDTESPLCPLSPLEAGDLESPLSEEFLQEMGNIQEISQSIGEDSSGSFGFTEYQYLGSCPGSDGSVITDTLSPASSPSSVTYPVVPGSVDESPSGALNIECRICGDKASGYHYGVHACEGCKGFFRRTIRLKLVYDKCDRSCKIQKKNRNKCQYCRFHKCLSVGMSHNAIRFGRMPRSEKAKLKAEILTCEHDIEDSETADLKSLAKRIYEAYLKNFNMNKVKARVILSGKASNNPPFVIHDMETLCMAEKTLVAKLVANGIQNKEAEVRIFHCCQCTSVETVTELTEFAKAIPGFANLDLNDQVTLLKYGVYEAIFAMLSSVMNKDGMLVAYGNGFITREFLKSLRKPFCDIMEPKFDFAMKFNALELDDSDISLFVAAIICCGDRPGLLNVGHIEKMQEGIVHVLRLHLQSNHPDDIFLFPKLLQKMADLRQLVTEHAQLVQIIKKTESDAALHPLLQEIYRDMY
Put plainly: Activity at PPARalpha receptor.

In data set [12] the target is T5, Free fatty acid receptor 1 (Homo sapiens, UniProt O14842). Put plainly: Agonist activity at GPR40 receptor expressed in CHO cells by reporter gene assay. It counts as functional, cell-based. Background: Reporter assays use an easily measured gene product as a stand-in for the process of interest.
T5 sequence (O14842 whole entry): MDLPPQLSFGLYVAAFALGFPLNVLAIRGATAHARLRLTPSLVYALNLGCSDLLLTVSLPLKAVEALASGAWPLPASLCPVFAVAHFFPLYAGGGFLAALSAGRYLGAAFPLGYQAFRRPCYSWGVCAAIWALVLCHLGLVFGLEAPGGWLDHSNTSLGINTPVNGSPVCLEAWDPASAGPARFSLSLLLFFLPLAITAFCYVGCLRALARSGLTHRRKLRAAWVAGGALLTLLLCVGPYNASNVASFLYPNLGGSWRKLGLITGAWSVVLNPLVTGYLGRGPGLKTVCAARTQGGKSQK
Data set [13] concerns the target T6, Peroxisome proliferator-activated receptor delta (Homo sapiens, UniProt Q03181).
T6 sequence (Q03181 whole entry): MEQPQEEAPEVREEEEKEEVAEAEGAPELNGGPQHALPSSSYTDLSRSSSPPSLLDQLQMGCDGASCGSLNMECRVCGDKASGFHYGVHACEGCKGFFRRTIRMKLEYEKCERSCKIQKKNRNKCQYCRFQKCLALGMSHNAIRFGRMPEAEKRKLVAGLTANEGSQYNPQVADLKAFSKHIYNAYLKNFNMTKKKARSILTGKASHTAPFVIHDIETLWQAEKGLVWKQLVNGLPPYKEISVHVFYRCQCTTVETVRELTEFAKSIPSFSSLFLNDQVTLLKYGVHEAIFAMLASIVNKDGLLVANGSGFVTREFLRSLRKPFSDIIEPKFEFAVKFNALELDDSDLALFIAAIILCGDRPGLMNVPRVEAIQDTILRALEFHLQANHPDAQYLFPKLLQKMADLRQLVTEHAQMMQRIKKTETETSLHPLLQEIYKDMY
Put plainly: Activity at PPARdelta receptor.

Data set [14] has as its target T5, Free fatty acid receptor 1. Put plainly: Agonist activity at GPR40 receptor. It counts as functional.
The species named for a further data set is Homo sapiens. In words: Selectivity for GPR40 over GPR41.
The nature of data set [15]: Bioavailability in rat. In kind it is ADME, organism-based. Conditions: in vivo.

Sphingosine 1-phosphate receptor 1, sequence (P21453 whole entry): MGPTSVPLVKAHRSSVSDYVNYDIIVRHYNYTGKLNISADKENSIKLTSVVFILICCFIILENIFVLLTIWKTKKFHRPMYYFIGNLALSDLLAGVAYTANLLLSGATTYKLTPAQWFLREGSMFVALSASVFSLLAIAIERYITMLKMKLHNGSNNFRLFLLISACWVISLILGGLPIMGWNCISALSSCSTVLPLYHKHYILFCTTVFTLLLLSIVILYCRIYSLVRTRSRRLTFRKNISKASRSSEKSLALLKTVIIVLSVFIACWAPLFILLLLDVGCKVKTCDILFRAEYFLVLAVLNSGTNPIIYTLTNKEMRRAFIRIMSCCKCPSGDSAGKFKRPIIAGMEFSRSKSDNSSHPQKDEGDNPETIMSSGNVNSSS

For orientation: clearance means the volume of plasma or blood freed of the substance per unit of time. A higher clearance goes with a high capacity for elimination. For orientation: EC50 means the concentration that produces a half-maximal response. Lower therefore signals greater potency. As a reminder, the Ki is the dissociation constant of the complex between target and ligand, obtained from inhibition or displacement. A word on the solubility: it is the concentration that dissolves in the medium under given conditions. Low values mean a poorly soluble substance, high ones a readily soluble substance. As usually defined, the half-life is the time needed for the level to fall by half in the phase considered. Low readings indicate fast loss, high ones slow loss. By bioavailability is commonly meant the share of a dose that reaches the circulation, judged against a reference dose that is usually intravenous. Higher therefore signals much systemic uptake. `O=C(O)CCc1ccc(NCc2cccc(Oc3ccccc3)c2)cc1` [GW9508]: in data set [1], the clearance worked out at 24.9 mL/min/kg. Moreover, in the data set on Liver microsomes, the CL was found to be 0.74 mL/min/g. For the same compound, in data set [2], the Papp came to 59.9 ×10⁻⁶ cm/s. Also, in data set [3], the Vd was 4.7 L/kg. For the same compound, the EC50 is > 50100 nM in data set [4], > 6310 nM in [5], > 31600 nM in data set [6] and 79.4 nM in [14]. In addition, the Ki is 398 nM in data set [7], > 1580 nM in data set [8], > 3160 nM in data set [11] and > 3160 nM in data set [13]. The same compound yielded a solubility in data set [9] of 290 µg/mL (≈ 835 µM). Besides, the half-life in [10] is 5.9 h. For the same compound, the %max in data set [12] was 69%. Besides, in the data set listed under Homo sapiens, the Fold change stood at 500. The compound also registered a bioavailability in [15] of 65%.
